In patent publication US5348960A, “Imidazo[4,5-b]quinolinyl oxy alkyl tetrazolyl piperidine derivatives” (Bristol-Myers Squibb Company, priority 1993, dated 1994):
In brackets after ≈: the same amount, converted by molar mass. Structures can show the parent of a compound that is named as a salt.

Assays:
aqueous solubility = format: physicochemical; conditions: water, dihydrochloride salts
[1] = tested on: ADP-induced aggregation of human blood platelets; experiment: cells; format: cell-based; conditions: Platelet, read-out: IC50 vs ADP in human PRP
Experimental: The aggregometer method of Born, C. V. R., J. Physiol., (London), 162, 67-68, (1962) as modified by Mustard, J. F., et al., J. Lab. Clin. Med., 64, 548-599, (1964) was used to assess the in vitro activity of the various compounds as to the inhibition of adenosine diphosphate (ADP) and collagen-induced platelet aggregation. The human volunteer donor's arm is cleansed with 70% ethyl alcohol. A sterile 20 ml syringe and needle are used to withdraw 20 ml of blood. The blood is immediately added to a test tube containing 3.8% sodium citrate to prevent clotting (1 part citrate to 9 parts blood).
Platelet rich plasma (PRP) was separated by centrifugation for 10 minutes at 1000 rpm (140xg) from citrated (3.8%) human blood. All glassware used for preparation of PRP is silicon treated. ADP in final concentration of 0.5 μg/mL or 0.05 mL of a collagen suspension prepared according to the method described by Evans, G., et al., J. Exp. Med., 128, 877-894, (1968) was used to induce aggregation. The various compounds tested were dissolved in dimethylsulfoxide (DMSO) so that 5 μl added to the platelet rich plasma would yield the desired test concentration. Vehicle control trials were done and compared with aggregation induced in platelet rich plasma containing various concentrations of the test compounds. Dose response curves were obtained and Inhibitor Concentration (IC50) values calculated.
The target compounds were evaluated as inhibitors of ADP-induced aggregation of human blood platelets in platelet-rich-plasma (PRP) in vitro. The test compounds were incubated at about 37° C. in PRP for about 3 minutes prior to the addition of sufficient ADP to provide a final ADP concentration of 5.86 μM.

| Structure (SMILES) | solubility (aqueous solubility) [µg/mL] | IC50 [1] [µg/mL] |
| --- | --- | --- |
| Oc1nc2cc3cc(OCCCc4nnnn4C4CCN(CCc5ccccc5)CC4)ccc3[nH]c-2n1 [Cmpd 12g, [5-[3-f 2,3-Dihydro-2-oxo-1H-imidazo[4,5-b]quinolin-7-yloxy)propyl]-1H-tetrazol-1-yl]-1-(2-phenylethyl) piperidine dihydrochloride] | < 5000 | 0.048 |
| CCOC(=O)N1CCC(n2nnnc2CCCOc2ccc3nc4[nH]c(=O)[nH]c4cc3c2)CC1 [Cmpd 10a, Ethyl 4-[5-[3-(2,3-dihydro-2-oxo-1H-imidazo[4,5-b]quinolin-7-yloxy)propyl]-1H-tetrazol-1-yl]-1-piperidinecarboxylate] | – | 0.2 (≈ 0.429 µM) |
| CCC(CC)CN1CCC(n2nnnc2CCCOc2ccc3nc4[nH]c(=O)[nH]c4cc3c2)CC1 [Cmpd 12e, [5-[3-(2, 3 -Dihydro-2-oxo-1H-imidazo [4,5-b]quinolin-7-yloxy)propyl]-1l H-tetrazol-1-yl]-1-(2-ethylbut-1-yl) piperidine dihydrochloride] | > 10000 | 0.007 |
| Oc1nc2cc3cc(OCCCCc4nnnn4C4CCN(Cc5ccccc5)CC4)ccc3[nH]c-2n1 [Cmpd 13b, dihydrochloride] | > 5000 | 0.018 |
| CCOC(=O)N1CCC(n2nnnc2CCCCOc2ccc3nc4[nH]c(=O)[nH]c4cc3c2)CC1 [Cmpd 10b] | – | 0.05 (≈ 0.104 µM) |
| CC(C)CN1CCC(n2nnnc2CCCOc2ccc3nc4[nH]c(=O)[nH]c4cc3c2)CC1 [Cmpd 12f, [5-[3-(2,3-Dihydro-2-oxo-1H-imidazo[4,5-b]quinolin-7-yloxy)propyl]-1H-tetrazol-1-yl]-1-(2-methylprop-1-yl) piperidine dihydrochloride] | > 10000 | 0.005 |
| Oc1nc2cc3cc(OCCCc4nnnn4C4CCN(Cc5ccc(F)cc5)CC4)ccc3[nH]c-2n1 [Cmpd 12c, [5-[3-(2,3-Dihydro-2-oxo-1H-imidazo[4,5-b]quinolin-7-yloxy)propyl]-1H-tetrazol-l-yl]-1-[(4-fluorophyl)methyl]piperidine dihydrochloride] | > 10000 | 0.019 |
| Oc1nc2cc3cc(OCCCc4nnnn4C4CCN(Cc5ccccc5)CC4)ccc3[nH]c-2n1 [Cmpd 12b, [5-[3-(2,3-Dihydro-2-oxo-1H-imidazo [4,5-b]quinolin-7-yloxy)propyl]-1H-tetrazol-l-yl]-1-(phenylmethyl) piperidine dihydrochloride] | > 10000 | 0.022 |
| CCCC(CCC)CN1CCC(n2nnnc2CCCOc2ccc3nc4[nH]c(=O)[nH]c4cc3c2)CC1 [Cmpd 12j, [5-[3-(2,3-Dihydro-2-oxo-1H-imidazo [4,5-b]quinolin-7-yloxy)propyl]-1H-tetrazol-1-yl]-1-(2-propylpent-1-yl) piperidine dihydrochloride] | ~2000 | 0.048 |
| Oc1nc2cc3cc(OCCCCc4nnnn4C4CCNCC4)ccc3[nH]c-2n1 [Cmpd 13a, dihydrochloride] | ~5000 | 2.6 |
| Oc1nc2cc3cc(OCCCc4nnnn4C4CCNCC4)ccc3[nH]c-2n1 [Cmpd 12a, [5-[3-(2,3-Dihydro-2-oxo-1H-imidazo[4,5-b]quinolin-7-yloxy)propyl]-1H-tetrazol-1-yl]piperidine dihydrochloride] | > 20000 | 5.4 |
| Oc1nc2cc3cc(OCCCc4nnnn4C4CCN(CC5CCCCC5)CC4)ccc3[nH]c-2n1 [Cmpd 12d, (Cyclohexylmethyl)-4-[5-[3-(2,3-dihydro-2-oxo-1H-imidazo[4,5-b]quinolin-7-yloxy)propyl]-1H-tetrazol-1-yl]piperidine dihydrochloride] | > 10000 | 0.009 |
| Cl.Cl.O=c1[nH]c2cc3cc(OCCCc4nnnn4C4CCN(CC5CCCCCC5)CC4)ccc3nc2[nH]1 [Cmpd 12i, 1-Cycloheptylmethyl-4-[5-[3-(2,3-dihydro-2-oxo-1H-imidazo[4,5-b]quinolin-7-yl-oxy)propyl]-1H-tetrazol-1-yl]piperidine dihydrochloride] | ~1000 | 0.01 |
| Cl.Cl.O=c1[nH]c2cc3cc(OCCCc4nnnn4C4CCN(CC5CCCC5)CC4)ccc3nc2[nH]1 [Cmpd 12h, 1-Cyclopentylmethyl-4-[5-[3-(2,3-dihydro-2-oxo-1H-imidazo[4,5-b]quinolin-7-yloxy)propyl]-1H-tetrazol-1-yl]piperidine dihydrochloride] | 2000 to 3000 | 0.005 |
| Oc1nc2cc3cc(OCCCCc4nnnn4C4CCN(Cc5ccc(F)cc5)CC4)ccc3[nH]c-2n1 [Cmpd 13c, dihydrochloride] | > 5000 | 0.031 |
| CCC(CC)CN1CCC(n2nnnc2CCCCOc2ccc3nc4[nH]c(=O)[nH]c4cc3c2)CC1 [Cmpd 13e, [5-[3-(2,3-Dihydro-2-oxo-1H-imidazo[4,5-b]quinolin-7-yloxy)butyl]-1H-tetrazol-1-yl]-1-(2-ethybut-1-yl) piperidine dihyudrochloride] | > 5000 | 0.0068 (≈ 0.0138 µM) |
| CC(C)CN1CCC(n2nnnc2CCCCOc2ccc3nc4[nH]c(=O)[nH]c4cc3c2)CC1 [Cmpd 13f, dihydrochloride] | > 10000 | 0.005 |
| Oc1nc2cc3cc(OCCCc4nnnn4C4CCN(CC5CCCCO5)CC4)ccc3[nH]c-2n1 (stereo not drawn) [Cmpd 12k, [5-[3-(2,3-Dihydro-2-oxo-1H-imidazo[4,5-b]quinolin-7-yloxy)propyl]-1H-tetrazol-1-yl]-1-[(terahydro-2H-pyran-2-yl)methyl]piperidine dihydrochloride] | > 10000 | 0.04 |
| Oc1nc2cc3cc(OCCCCc4nnnn4C4CCN(CC5CCCCC5)CC4)ccc3[nH]c-2n1 [Cmpd 13d, dihydrochloride] | > 5000 | 0.012 |
